Laboratory results published in patent publication US9593305B2, “Differentiation of pluripotent stem cells” (Janssen Biotech, Inc., priority 2008, dated 2017).

System: H1 human embryonic stem cells
Test: Secondary assay: compound combined with individual growth factors or small molecules, no activin A (Example 5, Table 4);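 as to Cell Number, Average Total Cell Number: Four-day assay with feeding on alternate days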;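 as to Sox17 Expression, Average Total Intensity: Four-day assay with feeding on alternate days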
Type: cell-based
[1] = no AA (with Wnt3a), bicuculline
[2] = no AA (with Wnt3a), EGF + FGF4 + PDGF-A + Muscimol
[3] = no AA (with Wnt3a), EGF + FGF4 + PDGF-A + VEGF
[4] = no AA (with Wnt3a), EGF + FGF4 + PDGF-AB
[5] = no AA (with Wnt3a), EGF + FGF4 + PDGF-AB + Muscimol
[6] = no AA (with Wnt3a), EGF + PDGF-A + VEGF
[7] = no AA (with Wnt3a), FGF4 + PDGF-A + VEGF

CCN1CC(=O)NCCCc2cncc(c2)-c2ncnc(n2)Nc2cc(Cl)cc(c2)C1 [Compound 35, 10-Chloro-14-ethyl-3,5,7,14,17,23,27-heptaazatetracyclo[19.3.1.1˜2,6˜0.1˜8,12]Theptacosa-1(25), 2(27), 3,5,8(26), 9,11,21,23-nonaen-16-one]
Cell Number, % of positive control (no AA (with Wnt3a), BMP1): 210.81%
Cell Number, Average Total Cell Number (no AA (with Wnt3a), BMP1): 18849
Sox17 Expression, % of positive control (no AA (with Wnt3a), BMP1): 6.59%
Sox17 Expression, Average Total Intensity (no AA (with Wnt3a), BMP1): 1.29E+07
Cell Number, % of positive control (no AA (with Wnt3a), BMP2): 181.38%
Cell Number, Average Total Cell Number (no AA (with Wnt3a), BMP2): 16218
Sox17 Expression, % of positive control (no AA (with Wnt3a), BMP2): 4.55%
Sox17 Expression, Average Total Intensity (no AA (with Wnt3a), BMP2): 8.89E+06
Cell Number, % of positive control (no AA (with Wnt3a), BMP2/7): 134.67%
Cell Number, Average Total Cell Number (no AA (with Wnt3a), BMP2/7): 12042
Sox17 Expression, % of positive control (no AA (with Wnt3a), BMP2/7): 3.62%
Sox17 Expression, Average Total Intensity (no AA (with Wnt3a), BMP2/7): 7.08E+06
Cell Number, % of positive control (no AA (with Wnt3a), BMP4): 187.31%
Cell Number, Average Total Cell Number (no AA (with Wnt3a), BMP4): 16748
Sox17 Expression, % of positive control (no AA (with Wnt3a), BMP4): 4.59%
Sox17 Expression, Average Total Intensity (no AA (with Wnt3a), BMP4): 8.97E+06
Cell Number, % of positive control (no AA (with Wnt3a), BMP7): 224.91%
Cell Number, Average Total Cell Number (no AA (with Wnt3a), BMP7): 20111
Sox17 Expression, % of positive control (no AA (with Wnt3a), BMP7): 4.12%
Sox17 Expression, Average Total Intensity (no AA (with Wnt3a), BMP7): 8.05E+06
Cell Number, % of positive control (no AA (with Wnt3a), Butyrate): 159.24%
Cell Number, Average Total Cell Number (no AA (with Wnt3a), Butyrate): 14238
Sox17 Expression, % of positive control (no AA (with Wnt3a), Butyrate): −0.94%
Sox17 Expression, Average Total Intensity (no AA (with Wnt3a), Butyrate): −1.85E+06
Cell Number, % of positive control (no AA (with Wnt3a), EGF): 216.23%
Cell Number, Average Total Cell Number (no AA (with Wnt3a), EGF): 19334
Sox17 Expression, % of positive control (no AA (with Wnt3a), EGF): 33.86%
Sox17 Expression, Average Total Intensity (no AA (with Wnt3a), EGF): 6.62E+07
Cell Number, % of positive control (no AA (with Wnt3a), FGF4): 49.32%
Cell Number, Average Total Cell Number (no AA (with Wnt3a), FGF4): 4410
Sox17 Expression, % of positive control (no AA (with Wnt3a), FGF4): 17.04%
Sox17 Expression, Average Total Intensity (no AA (with Wnt3a), FGF4): 3.33E+07
Cell Number, % of positive control (no AA (with Wnt3a), LY294002): 205.49%
Cell Number, Average Total Cell Number (no AA (with Wnt3a), LY294002): 18374
Sox17 Expression, % of positive control (no AA (with Wnt3a), LY294002): 5.28%
Sox17 Expression, Average Total Intensity (no AA (with Wnt3a), LY294002): 1.03E+07
Cell Number, % of positive control (no AA (with Wnt3a), Muscimol): 211.00%
Cell Number, Average Total Cell Number (no AA (with Wnt3a), Muscimol): 18867
Sox17 Expression, % of positive control (no AA (with Wnt3a), Muscimol): 13.35%
Sox17 Expression, Average Total Intensity (no AA (with Wnt3a), Muscimol): 2.61E+07
Cell Number, % of positive control (no AA (with Wnt3a), PD98059): 211.11%
Cell Number, Average Total Cell Number (no AA (with Wnt3a), PD98059): 18877
Sox17 Expression, % of positive control (no AA (with Wnt3a), PD98059): 6.64%
Sox17 Expression, Average Total Intensity (no AA (with Wnt3a), PD98059): 1.30E+07
Cell Number, % of positive control (no AA (with Wnt3a), PDGF-A): 188.84%
Cell Number, Average Total Cell Number (no AA (with Wnt3a), PDGF-A): 16885
Sox17 Expression, % of positive control (no AA (with Wnt3a), PDGF-A): 22.94%
Sox17 Expression, Average Total Intensity (no AA (with Wnt3a), PDGF-A): 4.48E+07
Cell Number, % of positive control (no AA (with Wnt3a), PDGF-AB): 186.34%
Cell Number, Average Total Cell Number (no AA (with Wnt3a), PDGF-AB): 16662
Sox17 Expression, % of positive control (no AA (with Wnt3a), PDGF-AB): 25.33%
Sox17 Expression, Average Total Intensity (no AA (with Wnt3a), PDGF-AB): 4.95E+07
Cell Number, % of positive control (no AA (with Wnt3a), PDGF-B): 158.46%
Cell Number, Average Total Cell Number (no AA (with Wnt3a), PDGF-B): 14168
Sox17 Expression, % of positive control (no AA (with Wnt3a), PDGF-B): 7.76%
Sox17 Expression, Average Total Intensity (no AA (with Wnt3a), PDGF-B): 1.52E+07
Cell Number, % of positive control (no AA (with Wnt3a), PDGF-C): 186.12%
Cell Number, Average Total Cell Number (no AA (with Wnt3a), PDGF-C): 16642
Sox17 Expression, % of positive control (no AA (with Wnt3a), PDGF-C): 9.46%
Sox17 Expression, Average Total Intensity (no AA (with Wnt3a), PDGF-C): 1.85E+07
Cell Number, % of positive control (no AA (with Wnt3a), PDGF-D): 197.03%
Cell Number, Average Total Cell Number (no AA (with Wnt3a), PDGF-D): 17618
Sox17 Expression, % of positive control (no AA (with Wnt3a), PDGF-D): 9.41%
Sox17 Expression, Average Total Intensity (no AA (with Wnt3a), PDGF-D): 1.84E+07
Cell Number, % of positive control (no AA (with Wnt3a), U0124): 184.97%
Cell Number, Average Total Cell Number (no AA (with Wnt3a), U0124): 16539
Sox17 Expression, % of positive control (no AA (with Wnt3a), U0124): 3.86%
Sox17 Expression, Average Total Intensity (no AA (with Wnt3a), U0124): 7.54E+06
Cell Number, % of positive control (no AA (with Wnt3a), U0126): 223.24%
Cell Number, Average Total Cell Number (no AA (with Wnt3a), U0126): 19961
Sox17 Expression, % of positive control (no AA (with Wnt3a), U0126): −0.29%
Sox17 Expression, Average Total Intensity (no AA (with Wnt3a), U0126): −5.75E+05
Cell Number, % of positive control (no AA (with Wnt3a), VEGF): 204.25%
Cell Number, Average Total Cell Number (no AA (with Wnt3a), VEGF): 18263
Sox17 Expression, % of positive control (no AA (with Wnt3a), VEGF): 17.98%
Sox17 Expression, Average Total Intensity (no AA (with Wnt3a), VEGF): 3.51E+07
Cell Number, % of positive control [1]: 215.98%
Cell Number, Average Total Cell Number [1]: 19312
Sox17 Expression, % of positive control [1]: 1.00%
Sox17 Expression, Average Total Intensity [1]: 1.95E+06
Cell Number, % of positive control (no AA (with Wut3a), BMP6): 199.50%
Cell Number, Average Total Cell Number (no AA (with Wut3a), BMP6): 17838
Sox17 Expression, % of positive control (no AA (with Wut3a), BMP6): 3.75%
Sox17 Expression, Average Total Intensity (no AA (with Wut3a), BMP6): 7.32E+06

O=C1NCCCc2cncc(c2)-c2ncnc(n2)Nc2cccc(c2)CN2CCCC1C2 (centres unmarked) [Compound 17, 3,5,7,14,20,26,31-Heptaazapentacyclo[22.3.1.1-2,6˜1˜8,12˜1˜14,18˜]hentriaconta-1(28), 2(31), 3,5,8(30), 9,11,24,26-nonaen-19-one]
Cell Number, % of positive control (no AA (with Wnt3a), EGF): 73.43%
Cell Number, Average Total Cell Number (no AA (with Wnt3a), EGF): 6942
Sox17 Expression, % of positive control (no AA (with Wnt3a), EGF): 0.74%
Sox17 Expression, Average Total Intensity (no AA (with Wnt3a), EGF): 1.27E+06
Cell Number, % of positive control (no AA (with Wnt3a), EGF + FGF4): 60.69%
Cell Number, Average Total Cell Number (no AA (with Wnt3a), EGF + FGF4): 5738
Sox17 Expression, % of positive control (no AA (with Wnt3a), EGF + FGF4): 1.83%
Sox17 Expression, Average Total Intensity (no AA (with Wnt3a), EGF + FGF4): 3.14E+06
Cell Number, % of positive control [2]: 144.37%
Cell Number, Average Total Cell Number [2]: 13649
Sox17 Expression, % of positive control [2]: 8.43%
Sox17 Expression, Average Total Intensity [2]: 1.45E+07
Cell Number, % of positive control [3]: 110.85%
Cell Number, Average Total Cell Number [3]: 10480
Sox17 Expression, % of positive control [3]: 5.23%
Sox17 Expression, Average Total Intensity [3]: 8.97E+06
Cell Number, % of positive control [4]: 47.10%
Cell Number, Average Total Cell Number [4]: 4453
Sox17 Expression, % of positive control [4]: 0.54%
Sox17 Expression, Average Total Intensity [4]: 9.30E+05
Cell Number, % of positive control [5]: 109.91%
Cell Number, Average Total Cell Number [5]: 10391
Sox17 Expression, % of positive control [5]: 5.20%
Sox17 Expression, Average Total Intensity [5]: 8.92E+06
Cell Number, % of positive control [6]: 60.59%
Cell Number, Average Total Cell Number [6]: 5728
Sox17 Expression, % of positive control [6]: 1.24%
Sox17 Expression, Average Total Intensity [6]: 2.14E+06
Cell Number, % of positive control [7]: 139.59%
Cell Number, Average Total Cell Number [7]: 13198
Sox17 Expression, % of positive control [7]: 7.54%
Sox17 Expression, Average Total Intensity [7]: 1.29E+07
